Results: US8450357B2, “Compositions comprising an aryl pyrazole and/or a formamidine, methods and uses thereof” (Merial Limited, priority 2008, dated 2013)
Like-named read-outs stand apart in the source and are kept apart here.

Tests used:
[1] = test system: adult Rhipicephalus sanguineus ticks; test: whole plant or invertebrate
Description: Fipronil was dissolved in acetone containing 0.019% of a mixture of Triton 152 and Triton 172 (1:3, v/v) and 0.4% DMSO to achieve the desired concentration. Dosages were serially diluted using this same formulation. For treatments containing amitraz, amitraz was added to the above solution to achieve the desired concentration. 0.5 ml of the solution was used to treat 20 ml scintillation vials containing a 0.125″ hole in the cap. […] Filter papers treated with this same solution were placed in the cap and bottom of the treated vial. Vials were capped and held over night at 24° C. and 95% RH after which 10 adult Rhipicephalus sanguineus ticks were placed into each vial. The vials were held under the same conditions mentioned above for the duration of the test. […]

[2] = test system: adult brown dog ticks (Rhipicephalus sanguineus); test: Tick DMSO contact assay, Compound 1 with amitraz, Example 15; assay type: in vivo; details: for mortality at 6.25 ppm / mortality at 12.5 ppm / mortality at 25 ppm: Rhipicephalus sanguineus; for Synergistic Ratio (EC50): EC50 alone divided by EC50 with Amitraz (12.5 ppm); for Synergistic Ratio (EC90): EC90 alone divided by EC90 with Amitraz (12.5 ppm)
Description: Dosages were serially diluted using this same formulation.
Scintillation vials were treated with commercial and experimental compounds using the same procedure described in Example 12 above. The treated vials were used to determine the contact toxicity of compounds against adult brown dog ticks (Rhipicephalus sanguineus). The ticks were supplied by Ecto Services Inc. Henderson, N.C.
Unfed adult ticks were released into a metal pan and 10 living ticks were aspirated into each vial. […] Two replicates were tested for each treatment and the results were averaged. Ticks were stimulated by gently exhaling in the vials. Within the same time period, the addition of amitraz to an equal dosage of compound 1 increased mean mortality.

[3] = test system: Ctenocephalides felis fleas; test: Study C: flea efficacy of Compound 1 and fipronil alone and with amitraz in dogs; assay type: in vivo
Description: The effectiveness of Compound 1 alone, fipronil alone, Compound 1 in combination with amitraz, or fipronil in combination with amitraz, when administered once as topical solutions to dogs against induced infestations of Rhipicephalus sanguineus and Ctenocephalides felis were determined in a third clinical study. Thirty-six beagles (18 males and 18 females) were selected for the study. Six replicates of 6 animals each were formed. Treatment Group 1 dogs were treated with a placebo. Treatment Groups 2, 3, 4, 5 and 6 received their respective treatments as a topical spot-on application once on Day 0. Each formulation included diethyleneglycol monoethyl ether (transcutol) as carrier. The Treatment Groups were: Treatment Group 2: fipronil at 0.1 mL/kg body weight (10 mg/kg); Treatment Group 3: Compound 1 at 0.1 mL/kg (10 mg/kg) body weight; Treatment Group 4: Compound 1 at 0.2 mL/kg (20 mg/kg) body weight; Treatment Group 5: Compound 1 at 0.1 mL/kg (10 mg/kg) body weight plus amitraz at 0.04 mL/kg (8 mg/kg) body weight; Treatment Group 6: fipronil at 0.1 mL/kg (10 mg/kg) body weight plus amitraz at 0.04 mL/kg (8 mg/kg) body weight. Treatment was applied by parting the hair and applying the formulation(s) directly onto the skin on one spot at the midline of the neck, except for Groups 4, 5 and 6 which were applied in approximately equal volumes on two spots, one spot between the base of the skull and the shoulder blades and the other at the front of the shoulder blades.
All dogs were infested with approximately 50 Rhipicephalus sanguineus ticks on Days −1, 7, 14, 21, 28, 35, 42, 49 and 56. Dogs were also infested with approximately 100 Ctenocephalides felis fleas on Days −1, 8, 15, 22, 29, 36, 43, 50 and 57. Ectoparasites were removed and counted on Day 2, approximately 48 hours after treatment and on Days 9, 16, 23, 30, 37, 44, 51 and 58 approximately 24 hours after flea infestation and 48 hours after tick infestation. Tables 8 and 9 below show the % efficacy of formulations comprising fipronil at 0.1 ml/kg of body weight, Compound 1 at […], and fipronil and Compound 1 both at […] in combination with amitraz at 0.04 ml/kg of body weight compared to control group without active compounds. The percent reduction in flea counts of the treated groups with respect to the Control group over the study is shown in FIG. 14.

[4] = 4 h, read-out: 4 hour % Mortality Rep 1
[5] = 4 h, read-out: 4 hour % Mortality Rep 2
[6] = 4 h, read-out: 4 hour Avg. % Mortality
[7] = 24 h, read-out: 24 hour % Mortality Rep 1
[8] = 24 h, read-out: 24 hour % Mortality Rep 2
[9] = 24 h, read-out: 24 hour Avg. % Mortality
[10] = 48 h, read-out: 48 hour % Mortality Rep 1
[11] = 48 h, read-out: 48 hour % Mortality Rep 2
[12] = 48 h, read-out: 48 hour Avg. % Mortality
[13] = 6 h, read-out: 6 hour % Mortality Rep 1
[14] = 6 h, read-out: 6 hour % Mortality Rep 2
[15] = 6 h, read-out: 6 hour Avg. % Mortality

Cc1ccc(/N=C/N(C)/C=N/c2ccc(C)cc2C)c(C)c1 [Amitraz, amitraz]
mortality at 3.13 ppm [1, 4]: 0%
mortality at 6.25 ppm [1, 4]: 0%
mortality at 12.5 ppm [1, 4]: 0%
mortality at 25 ppm [1, 4]: 0%
mortality at 3.13 ppm [1, 5]: 0%
mortality at 6.25 ppm [1, 5]: 0%
mortality at 12.5 ppm [1, 5]: 0%
mortality at 25 ppm [1, 5]: 0%
mortality at 3.13 ppm [1, 6]: 0%
mortality at 6.25 ppm [1, 6]: 0%
mortality at 12.5 ppm [1, 6]: 0%
mortality at 25 ppm [1, 6]: 0%
mortality at 3.13 ppm [1, 7]: 0%
mortality at 6.25 ppm [1, 7]: 0%
mortality at 12.5 ppm [1, 7]: 0%
mortality at 25 ppm [1, 7]: 0%
mortality at 3.13 ppm [1, 8]: 0%
mortality at 6.25 ppm [1, 8]: 0%
mortality at 12.5 ppm [1, 8]: 0%
mortality at 25 ppm [1, 8]: 0%
mortality at 3.13 ppm [1, 9]: 0%
mortality at 6.25 ppm [1, 9]: 0%
mortality at 12.5 ppm [1, 9]: 0%
mortality at 25 ppm [1, 9]: 0%
mortality at 3.13 ppm [1, 10]: 0%
mortality at 6.25 ppm [1, 10]: 0%
mortality at 12.5 ppm [1, 10]: 0%
mortality at 25 ppm [1, 10]: 0%
mortality at 3.13 ppm [1, 11]: 0%
mortality at 6.25 ppm [1, 11]: 0%
mortality at 12.5 ppm [1, 11]: 0%
mortality at 25 ppm [1, 11]: 0%
mortality at 3.13 ppm [1, 12]: 0%
mortality at 6.25 ppm [1, 12]: 0%
mortality at 12.5 ppm [1, 12]: 0%
mortality at 25 ppm [1, 12]: 0%
mortality at 6.25 ppm [2, 13]: 0%
mortality at 12.5 ppm [2, 13]: 0%
mortality at 25 ppm [2, 13]: 0%
mortality at 6.25 ppm [2, 14]: 0%
mortality at 12.5 ppm [2, 14]: 0%
mortality at 25 ppm [2, 14]: 0%
mortality at 6.25 ppm [2, 15]: 0%
mortality at 12.5 ppm [2, 15]: 0%
mortality at 25 ppm [2, 15]: 0%
mortality at 6.25 ppm [2, 7]: 0%
mortality at 12.5 ppm [2, 7]: 0%
mortality at 25 ppm [2, 7]: 0%
mortality at 6.25 ppm [2, 8]: 0%
mortality at 12.5 ppm [2, 8]: 0%
mortality at 25 ppm [2, 8]: 0%
mortality at 6.25 ppm [2, 9]: 0%
mortality at 12.5 ppm [2, 9]: 0%
mortality at 25 ppm [2, 9]: 0%
mortality at 6.25 ppm [2, 10]: 0%
mortality at 12.5 ppm [2, 10]: 0%
mortality at 25 ppm [2, 10]: 10%
mortality at 6.25 ppm [2, 11]: 0%
mortality at 12.5 ppm [2, 11]: 0%
mortality at 25 ppm [2, 11]: 10%
mortality at 6.25 ppm [2, 12]: 0%
mortality at 12.5 ppm [2, 12]: 0%
mortality at 25 ppm [2, 12]: 10%

N#Cc1nn(-c2c(Cl)cc(C(F)(F)F)cc2Cl)c(N)c1[S+]([O-])C(F)(F)F (centres unmarked) [fipronil, 5-amino-3-cyano-1-(2,6-dichloro-4-trifluoromethylphenyl)-4-trifluoromethylsulfinylpyrazole]
mortality at 0.025 ppm [1, 4]: 0%
mortality at 0.1 ppm [1, 4]: 0%
mortality at 0.4 ppm [1, 4]: 0%
mortality at 1.6 ppm [1, 4]: 0%
mortality at 6.25 ppm [1, 4]: 10%
mortality at 25 ppm [1, 4]: 80%
mortality at 0.025 ppm [1, 5]: 0%
mortality at 0.1 ppm [1, 5]: 0%
mortality at 0.4 ppm [1, 5]: 0%
mortality at 1.6 ppm [1, 5]: 0%
mortality at 6.25 ppm [1, 5]: 20%
mortality at 25 ppm [1, 5]: 90%
mortality at 0.025 ppm [1, 6]: 0%
mortality at 0.1 ppm [1, 6]: 0%
mortality at 0.4 ppm [1, 6]: 0%
mortality at 1.6 ppm [1, 6]: 0%
mortality at 6.25 ppm [1, 6]: 15%
mortality at 25 ppm [1, 6]: 85%
mortality at 0.025 ppm [1, 7]: 0%
mortality at 0.1 ppm [1, 7]: 0%
mortality at 0.4 ppm [1, 7]: 0%
mortality at 6.25 ppm [1, 7]: 100%
mortality at 25 ppm [1, 7]: 100%
mortality at 0.025 ppm [1, 8]: 0%
mortality at 0.1 ppm [1, 8]: 0%
mortality at 0.4 ppm [1, 8]: 0%
mortality at 1.6 ppm [1, 8]: 30%
mortality at 6.25 ppm [1, 8]: 90%
mortality at 25 ppm [1, 8]: 100%
mortality at 0.025 ppm [1, 9]: 0%
mortality at 0.1 ppm [1, 9]: 0%
mortality at 0.4 ppm [1, 9]: 0%
mortality at 1.6 ppm [1, 9]: 50%
mortality at 6.25 ppm [1, 9]: 95%
mortality at 25 ppm [1, 9]: 100%
mortality at 0.025 ppm [1, 10]: 0%
mortality at 0.1 ppm [1, 10]: 0%
mortality at 0.4 ppm [1, 10]: 0%
mortality at 1.6 ppm [1, 10]: 100%
mortality at 6.25 ppm [1, 10]: 100%
mortality at 25 ppm [1, 10]: 100%
mortality at 0.025 ppm [1, 11]: 0%
mortality at 0.1 ppm [1, 11]: 0%
mortality at 0.4 ppm [1, 11]: 0%
mortality at 1.6 ppm [1, 11]: 70%
mortality at 6.25 ppm [1, 11]: 90%
mortality at 25 ppm [1, 11]: 100%
mortality at 0.025 ppm [1, 12]: 0%
mortality at 0.1 ppm [1, 12]: 0%
mortality at 0.4 ppm [1, 12]: 0%
mortality at 1.6 ppm [1, 12]: 85%
mortality at 6.25 ppm [1, 12]: 95%
mortality at 25 ppm [1, 12]: 100%
% Efficacy against fleas ([3]; Day 2, 10 mg/kg): 100%
% Efficacy against fleas ([3]; Day 9, 10 mg/kg): 100%
% Efficacy against fleas ([3]; Day 16, 10 mg/kg): 100%
% Efficacy against fleas ([3]; Day 23, 10 mg/kg): 100%
% Efficacy against fleas ([3]; Day 30, 10 mg/kg): 100%
% Efficacy against fleas ([3]; Day 37, 10 mg/kg): 100%
% Efficacy against fleas ([3]; Day 44, 10 mg/kg): 99.8%
% Efficacy against fleas ([3]; Day 51, 10 mg/kg): 100%
% Efficacy against fleas ([3]; Day 58, 10 mg/kg): 99.1%

Cc1c([S+]([O-])C(F)(Cl)Cl)c(C#N)nn1-c1c(F)cc(C(F)(F)F)cc1Cl (centres unmarked) [Compound 1, 3-cyano-1-(2-chloro-6-fluoro-4-trifluoromethylphenyl)-4-dichlorofluoromethylsulfinyl-5-methyl-1H-pyrazole]
Synergistic Ratio (EC50) ([2]; 6 hour Eval): 11
Synergistic Ratio (EC90) ([2]; 6 hour Eval): >5.72
Synergistic Ratio (EC50) ([2]; 24 hour Eval): 135.3
Synergistic Ratio (EC90) ([2]; 24 hour Eval): 111.4
Synergistic Ratio (EC50) ([2]; 48 hour Eval): 133.1
Synergistic Ratio (EC90) ([2]; 48 hour Eval): 50.3
% Efficacy against fleas ([3]; Day 2, 10 mg/kg): 100%
% Efficacy against fleas ([3]; Day 2, 20 mg/kg): 100%
% Efficacy against fleas ([3]; Day 9, 10 mg/kg): 100%
% Efficacy against fleas ([3]; Day 9, 20 mg/kg): 100%
% Efficacy against fleas ([3]; Day 16, 10 mg/kg): 100%
% Efficacy against fleas ([3]; Day 16, 20 mg/kg): 100%
% Efficacy against fleas ([3]; Day 23, 10 mg/kg): 100%
% Efficacy against fleas ([3]; Day 23, 20 mg/kg): 100%
% Efficacy against fleas ([3]; Day 30, 10 mg/kg): 99.8%
% Efficacy against fleas ([3]; Day 30, 20 mg/kg): 100%
% Efficacy against fleas ([3]; Day 37, 10 mg/kg): 99.4%
% Efficacy against fleas ([3]; Day 37, 20 mg/kg): 100%
% Efficacy against fleas ([3]; Day 44, 10 mg/kg): 98.6%
% Efficacy against fleas ([3]; Day 44, 20 mg/kg): 100%
% Efficacy against fleas ([3]; Day 51, 10 mg/kg): 98.5%
% Efficacy against fleas ([3]; Day 51, 20 mg/kg): 99.8%
% Efficacy against fleas ([3]; Day 58, 10 mg/kg): 94.6%
% Efficacy against fleas ([3]; Day 58, 20 mg/kg): 100%
